Read-outs that look alike come from different tables or passages of the source. Where a SMILES comes first, the peptide text is derived from it. Bridges are numbered along the chain shown (N, C = ends). Where no end group is shown, it is not given here.
Tests used:
[1] = system: kidney cell line 293T; assay: CCK-8 cytotoxicity assay in 293T cells; conditions: 10, 1 and 0.1 μM, 24 and 72 hours
[2] = system: epidermal keratinocytes HaCaT; assay: CCK-8 cytotoxicity assay in HaCaT cells; conditions: 10, 1 and 0.1 μM, 24 and 72 hours
[3] = system: Sox2; assay: RT-PCR of regeneration-related gene Sox2 in HaCaT skin cells; assay type: cell-based; conditions: 1 μM, 24 hours
[4] = system: Oct4; assay: RT-PCR of regeneration-related gene Oct4 in HaCaT skin cells; assay type: cell-based; conditions: 1 μM, 24 hours
[5] = system: rat hypothalamic neurons; conditions: cited from earlier work
[6] = system: kidney cell line 293T
[7] = system: epidermal keratinocytes HaCaT
[8] = system: kidney cell line 293T; assay: Size of stem cell spheroids formed in 293T cells; assay type: cell-based; conditions: 10, 1 and 0.1 μM, cultured 10 days
Procedure: (§1) For the formation of spheroids, the cells prepared in Preparation Example 2 were cultured in Aggrewell 800 plates pretreated with an anti-Adherence rinsing solution, using a DMEM-F12 medium containing a stem cell-permissive medium supplemented with 20 ng/ml EGF, 20 ng/ml basic fibroblast growth factor (bFGf), and B27 Serum-free Supplement (50×; Invitrogen).
(§2) After the culture period, the spheroids were observed under a microscope, and approximately 25 spheroids were measured.
(§3) Specifically, FIGS. 5 to 8 show the results of adding the peptides prepared in Preparation Example 1 to the renal cell line 293T, and FIGS. 9 to 12 show the results of adding the same peptides to the epidermal keratinocytes HaCaT.

[9] = system: epidermal keratinocytes HaCaT; assay: Size of stem cell spheroids formed in HaCaT cells; assay type: cell-based; conditions: 10, 1 and 0.1 μM, cultured 10 days
Procedure: as §1, §2, §3

CC[C@H](C)[C@@H]1NC(=O)[C@H](Cc2ccccc2)NC(=O)[C@@H](N)CSSC[C@@H](C(=O)N2CCC[C@H]2C(=O)N[C@@H](CC(C)C)C(=O)NCC(N)=O)NC(=O)[C@H](CC(N)=O)NC(=O)[C@H]([C@@H](C)O)NC1=O [Holotocin(HLT), Holotocin] (H-CFITNCPLG-NH2; disulfide 1-6)
cytotoxicity / cell viability [1]: no changes in cytotoxicity or cell proliferation | cytotoxicity / cell viability [2]: no changes in cytotoxicity or cell proliferation

CC[C@H](C)[C@@H]1NC(=O)[C@H](Cc2ccc(O)cc2)NC(=O)[C@@H](N)CSSC[C@@H](C(=O)N2CCC[C@H]2C(=O)N[C@@H](CC(C)C)C(=O)NCC(N)=O)NC(=O)[C@H](CC(N)=O)NC(=O)[C@H](CCC(N)=O)NC1=O [Oxytocin(OXT), Oxytocin]
expression of stemness-related gene Sox2 ([3]; HaCaT, RT-PCR): induces the expression | expression of stemness-related gene Oct4 ([4]; HaCaT, RT-PCR): induces the expression | size of spheroids ([5]; rat hypothalamic neurons, Salehi et al. 2021): increase the size of spheroids | cytotoxicity / cell viability [1]: no changes in cytotoxicity or cell proliferation | cytotoxicity / cell viability [2]: no changes in cytotoxicity or cell proliferation

NC(=O)CC[C@@H]1NC(=O)[C@H](Cc2ccccc2)NC(=O)[C@H](Cc2ccc(O)cc2)NC(=O)[C@@H](N)CSSC[C@@H](C(=O)N2CCC[C@H]2C(=O)N[C@@H](CCCN=C(N)N)C(=O)NCC(N)=O)NC(=O)[C@H](CC(N)=O)NC1=O [Vasopressin(AVP), Vasopressin]
expression of stemness-related gene Sox2 [3]: induces the expression | expression of stemness-related gene Oct4 [4]: induces the expression | cytotoxicity / cell viability [6]: no changes in cytotoxicity or cell proliferation | cytotoxicity / cell viability [7]: no changes in cytotoxicity or cell proliferation | size of spheroids [5]: increase the size of spheroids

Octopressin (CFWTNCPVG-NH2; ends and bridges not checked; listed as Octopus vulgaris) [Octopressin(OTP)]
change in the size of the stem cell spheroids (in words) [8]: little or no change in the size | change in the size of the stem cell spheroids (in words) [9]: little or no change in the size | cytotoxicity / cell viability [1]: no changes in cytotoxicity or cell proliferation | cytotoxicity / cell viability [2]: no changes in cytotoxicity or cell proliferation
